Patent US9309224B2 (Deciphera Pharmaceuticals, LLC, priority 2013, dated 2016)

How the values were obtained:
[1] = molecular target: T1, unphosphorylated c-FMS kinase (uFMS, Seq. ID no. 1) (Homo sapiens, UniProt P07333); assay: uFMS kinase assay (pyruvate kinase/lactate dehydrogenase coupled); type: biochemical; settings: ATP 500 μM
T1 construct: purchased Millipore
T1 sequence (P07333 538-972): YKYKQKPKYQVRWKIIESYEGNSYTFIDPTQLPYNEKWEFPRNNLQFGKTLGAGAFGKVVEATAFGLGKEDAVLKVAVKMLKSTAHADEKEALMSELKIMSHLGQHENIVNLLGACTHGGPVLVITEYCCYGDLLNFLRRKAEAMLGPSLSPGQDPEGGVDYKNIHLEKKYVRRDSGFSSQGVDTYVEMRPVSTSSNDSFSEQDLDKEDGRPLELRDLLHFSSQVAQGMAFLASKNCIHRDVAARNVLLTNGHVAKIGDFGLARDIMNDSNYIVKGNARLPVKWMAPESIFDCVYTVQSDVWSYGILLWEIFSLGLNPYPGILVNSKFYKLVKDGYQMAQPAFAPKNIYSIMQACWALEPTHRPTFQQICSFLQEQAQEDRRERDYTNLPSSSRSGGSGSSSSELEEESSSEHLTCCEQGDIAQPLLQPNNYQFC
Procedure: In this assay, the oxidation of NADH (thus the decrease at A340 nm) was continuously monitored spectrophometrically. The reaction mixture (100 μL) contained FMS (purchased from Millipore) (10 nM), polyE4Y (1 mg/mL), MgCl2 (10 mM), pyruvate kinase (4 units), lactate dehydrogenase (0.7 units), phosphoenol pyruvate (1 mM), NADH (0.28 mM) and ATP (500 μM) in 90 mM Tris buffer containing 0.2% octyl-glucoside and 1% DMSO, pH 7.5. The inhibition reaction was started by mixing serial diluted test compound with the above reaction mixture. The absorption at 340 nm was monitored continuously for 4 hours at 30° C. on Synergy 2 plate reader. The reaction rate was calculated using the 3 to 4 h time frame. Percent inhibition was obtained by comparison of reaction rate with that of a control (i.e. in the absence of test compound). IC50 values were calculated from a series of percent inhibition values determined at a range of inhibitor concentrations using software routines as implemented in the GraphPad Prism software package.

[2] = molecular target: T2, unphosphorylated PDGFRβ kinase (uPDGFRβ, Seq. ID No. 3) (Homo sapiens, UniProt P09619); assay: Unphosphorylated PDGFRβ kinase assay (pyruvate kinase/lactate dehydrogenase coupled); type: biochemical; settings: ATP 500 μM
T2 construct: purchased DeCode
T2 sequence (P09619 557-1105): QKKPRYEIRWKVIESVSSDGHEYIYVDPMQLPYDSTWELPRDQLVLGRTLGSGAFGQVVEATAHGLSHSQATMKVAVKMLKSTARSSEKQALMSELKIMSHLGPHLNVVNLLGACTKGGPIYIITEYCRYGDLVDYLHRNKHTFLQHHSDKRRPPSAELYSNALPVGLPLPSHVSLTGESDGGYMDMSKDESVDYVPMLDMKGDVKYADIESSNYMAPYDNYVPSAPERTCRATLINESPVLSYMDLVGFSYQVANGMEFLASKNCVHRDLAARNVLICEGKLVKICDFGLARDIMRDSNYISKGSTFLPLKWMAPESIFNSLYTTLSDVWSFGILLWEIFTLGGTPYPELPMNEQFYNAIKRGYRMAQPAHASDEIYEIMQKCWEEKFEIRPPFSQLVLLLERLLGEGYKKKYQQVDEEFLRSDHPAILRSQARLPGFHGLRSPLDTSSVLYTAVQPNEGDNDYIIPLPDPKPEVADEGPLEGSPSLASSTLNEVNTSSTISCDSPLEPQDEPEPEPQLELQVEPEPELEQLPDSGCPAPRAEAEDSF
Description: Unphosyhorylated PDGFRβ (uPDGFRβkinase (Seq. ID No. 3) assay

osteoclast precursors = assay: Osteoclast tartrate-resistant acid phosphatase assay; type: cell-based; settings: Osteoclast; 7-14 days, RANKL and M-CSF
Procedure: Diluted compound was transferred to a 384-well black clear bottom plate. Two-thousand five hundred osteoclast precursors (Lonza, Walkersville, Md.) were added per well in growth media containing Receptor Activator of Nuclear Factor Kappa-beta ligand (RANKL) and M-CSF (R&D Systems, Minneapolis, Minn.). Plates were incubated for 7-14 days at 37 degrees Celsius, 5% CO2, and 95% humidity to allow differentiation of osteoclast precursors. […] Tartrate-resistant acid phosphatase activity in the supernatant samples was determined using an acid phosphatase assay kit (Sigma, St. Louis, Mo.). Absorbance was measured at 550 nm using a plate reader. Data was analyzed using Prism software (Graphpad, San Diego, Calif.) to calculate IC50 values.

[3] = molecular target: T3, phospho-FMS in THP-1 cells (Homo sapiens, UniProt P07333); assay: Phospho-FMS ELISA assay in THP-1 cells; type: cell-based; settings: 4 hours compound, M-CSF stimulated; read-out: pFMS inhibition in THP-1 cells
T3 construct: endogenous in cells; host or cells: THP-1 (ATCC TIB-202)
T3 sequence (P07333 20-972): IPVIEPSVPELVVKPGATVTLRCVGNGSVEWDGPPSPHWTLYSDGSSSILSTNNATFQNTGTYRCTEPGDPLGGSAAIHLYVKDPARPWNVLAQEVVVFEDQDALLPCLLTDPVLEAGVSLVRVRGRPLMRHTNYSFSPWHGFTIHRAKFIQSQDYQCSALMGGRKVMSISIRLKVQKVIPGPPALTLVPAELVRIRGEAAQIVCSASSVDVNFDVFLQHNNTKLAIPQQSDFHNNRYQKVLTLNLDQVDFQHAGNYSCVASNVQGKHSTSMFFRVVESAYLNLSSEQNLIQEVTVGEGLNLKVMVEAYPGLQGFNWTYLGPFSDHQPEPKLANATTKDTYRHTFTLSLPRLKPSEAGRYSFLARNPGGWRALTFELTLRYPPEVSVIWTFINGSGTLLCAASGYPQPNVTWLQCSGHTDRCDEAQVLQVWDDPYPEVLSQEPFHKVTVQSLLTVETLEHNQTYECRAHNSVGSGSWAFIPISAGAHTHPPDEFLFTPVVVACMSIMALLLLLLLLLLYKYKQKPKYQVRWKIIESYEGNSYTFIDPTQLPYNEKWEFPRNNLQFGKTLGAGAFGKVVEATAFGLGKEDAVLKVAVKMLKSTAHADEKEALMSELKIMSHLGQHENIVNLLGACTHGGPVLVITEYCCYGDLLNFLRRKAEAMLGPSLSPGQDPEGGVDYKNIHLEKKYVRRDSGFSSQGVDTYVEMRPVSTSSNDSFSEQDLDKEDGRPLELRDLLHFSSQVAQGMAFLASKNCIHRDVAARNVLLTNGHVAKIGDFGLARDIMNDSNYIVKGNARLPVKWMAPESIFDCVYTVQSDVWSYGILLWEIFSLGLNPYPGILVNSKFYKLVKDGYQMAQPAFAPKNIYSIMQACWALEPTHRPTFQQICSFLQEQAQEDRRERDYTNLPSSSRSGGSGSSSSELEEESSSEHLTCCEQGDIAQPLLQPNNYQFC
Procedure: In a separate 96 well black clear bottom plate, one hundred and fifty thousand THP-1 cells were added per well in 100 μL in assay medium. Fifty microliters of diluted compound was then added to the cells. […] Lysates were prepared and used to perform the phospho-FMS ELISA as described by the manufacturer (catalog #DYC3268, R & D Systems, Minneapolis, Minn.). GraphPad Prism was used to calculate IC50 values obtained from data generated from the ELISA assay.

M-NFS-60 cells = assay: M-NFS-60 cell proliferation assay; type: cell-based; settings: 67 h incubation, resazurin
Procedure: M-NFS-60 Cell Proliferation Assay A serial dilution of test compound was dispensed into a 384-well black clear bottom plate (Corning, Corning, N.Y.). Two thousand five hundred cells were added per well in 50 μL complete growth medium. […] IC50 values were calculated from a series of percent inhibition values determined at a range of inhibitor concentrations using software routines as implemented in the GraphPad Prism software package.

[4] = molecular target: T4, unphosphorylated c-KIT kinase (uKIT, Seq. ID no. 2) (Homo sapiens, UniProt P10721); assay: uKit kinase assay (pyruvate kinase/lactate dehydrogenase coupled); type: biochemical; settings: ATP 2000 μM
T4 construct: uKit with N-terminal GST fusion used for
T4 sequence (P10721 with tags, fused parts or gaps): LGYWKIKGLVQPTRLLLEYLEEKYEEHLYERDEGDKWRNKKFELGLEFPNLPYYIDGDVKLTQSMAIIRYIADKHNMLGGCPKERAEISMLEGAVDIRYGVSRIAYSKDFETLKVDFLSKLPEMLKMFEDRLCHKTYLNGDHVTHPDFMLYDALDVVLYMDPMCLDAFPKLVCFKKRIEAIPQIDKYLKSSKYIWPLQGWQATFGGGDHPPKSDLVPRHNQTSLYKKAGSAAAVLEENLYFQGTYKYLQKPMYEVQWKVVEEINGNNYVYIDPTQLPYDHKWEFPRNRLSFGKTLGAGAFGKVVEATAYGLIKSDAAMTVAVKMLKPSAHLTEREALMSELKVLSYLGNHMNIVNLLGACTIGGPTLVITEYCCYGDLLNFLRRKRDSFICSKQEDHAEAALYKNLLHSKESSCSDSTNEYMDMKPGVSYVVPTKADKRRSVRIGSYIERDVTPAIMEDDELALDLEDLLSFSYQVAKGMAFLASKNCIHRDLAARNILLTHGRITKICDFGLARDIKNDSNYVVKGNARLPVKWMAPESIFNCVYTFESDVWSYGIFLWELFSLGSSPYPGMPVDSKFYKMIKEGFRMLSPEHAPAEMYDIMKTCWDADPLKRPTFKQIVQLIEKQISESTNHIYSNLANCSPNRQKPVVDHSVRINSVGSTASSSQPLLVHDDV
Procedure: In this assay, the oxidation of NADH (thus the decrease at A340 nm) was continuously monitored spectrophometrically. […] The inhibition reaction was started by mixing serial diluted test compound with the above reaction mixture. The absorption at 340 nm was monitored continuously for 4 hours at 30° C. on Synergy 2 plate reader (BioTech).

Row | IC50 [1] | IC50 [2] | IC50 (osteoclast precursors) | IC50 [3] | IC50 [4] | Compound | IC50 (M-NFS-60 cells)
1 | < 10 nM | 100 to 1000 nM | < 10 nM | < 10 nM | > 1000 nM | Cc1nc(NC(=O)NC(=O)C(C)(C)C)ccc1Oc1ccnc(NC(=O)N2CCCC2)c1 [Example 71, N-(4-((2-methyl-6-(3-pivaloylureido)pyridin-3-yl)oxy)pyridin-2-yl)pyrrolidine-1-carboxamide] | < 10 nM
2 | 100 to 1000 nM | > 1000 nM | 10 to 100 nM | 10 to 100 nM | > 1000 nM | CNC(=O)c1cc(Oc2ccc(NC(=O)NC(=O)C3(C)CCOCC3)nc2)ccn1 [Example 70, N-methyl-4-((6-(3-(4-methyltetrahydro-2H-pyran-4-carbonyl)ureido)pyridin-3-yl)oxy)picolinamide] | 100 to 1000 nM
3 | 10 to 100 nM | 100 to 1000 nM | 10 to 100 nM | < 10 nM | > 1000 nM | CC(=O)Nc1cc(Oc2ccc(NC(=O)NC(=O)C3CCOCC3)nc2C)ccn1 [Example 7, N-((5-((2-acetamidopyridin-4-yl)oxy)-6-methylpyridin-2-yl)carbamoyl)tetrahydro-2H-pyran-4-carboxamide] | 10 to 100 nM
4 | 10 to 100 nM | > 1000 nM | 10 to 100 nM | < 10 nM | > 1000 nM | CNC(=O)c1cc(Oc2ccc(NC(=O)NC(=O)C(C)(C)OC)nc2)ccn1 [Example 58, 4-((6-(3-(2-methoxy-2-methylpropanoyl)ureido)pyridin-3-yl)oxy)-N-methylpicolinamide] | 10 to 100 nM
5 | < 10 nM | 100 to 1000 nM | < 10 nM | < 10 nM | > 1000 nM | CC(C)C(=O)NC(=O)Nc1ccc(Oc2ccnc(NC(=O)N3CCN(C)CC3)c2)cn1 [Example 66, N-(4-((6-(3-isobutyrylureido)pyridin-3-yl)oxy)pyridin-2-yl)-4-methylpiperazine-1-carboxamide] | < 10 nM
6 | 10 to 100 nM | 100 to 1000 nM | 10 to 100 nM | 10 to 100 nM | > 1000 nM | CC(C)C(=O)Nc1cc(Oc2ccc(NC(=O)NC(=O)C(C)(C)C)nc2)ccn1 [Example 17, N-((5-((2-isobutyramidopyridin-4-yl)oxy)pyridin-2-yl)carbamoyl)pivalamide] | 10 to 100 nM
7 | 10 to 100 nM | 100 to 1000 nM | < 10 nM | < 10 nM | 100 to 1000 nM | CC(=O)Nc1cc(Oc2ccc(NC(=O)NC(=O)C3CCOCC3)nc2)ccn1 [Example 5, N-((5-((2-acetamidopyridin-4-yl)oxy)pyridin-2-yl)carbamoyl)tetrahydro-2H-pyran-4-carboxamide] | 10 to 100 nM
8 | < 10 nM | 100 to 1000 nM | 10 to 100 nM | 10 to 100 nM | > 1000 nM | CCC(=O)Nc1cc(Oc2ccc(NC(=O)NC(=O)C(C)(C)C)nc2C)ccn1 [Example 12, N-((6-methyl-5-((2-propionamidopyridin-4-yl)oxy)pyridin-2-yl)carbamoyl)pivalamide] | < 10 nM
9 | 10 to 100 nM | 100 to 1000 nM | < 10 nM | 10 to 100 nM | > 1000 nM | COC1(C(=O)NC(=O)Nc2ccc(Oc3ccnc(NC(C)=O)c3)cn2)CC1 [Example 27, N-((5-((2-acetamidopyridin-4-yl)oxy)pyridin-2-yl)carbamoyl)-1-methoxycyclopropanecarboxamide] | 10 to 100 nM
10 | < 10 nM | > 1000 nM | < 10 nM | 10 to 100 nM | > 1000 nM | Cc1nc(NC(=O)NC(=O)C(C)(C)C)ccc1Oc1ccnc(NC(=O)N2CCOCC2)c1 [Example 63, N-(4-((2-methyl-6-(3-pivaloylureido)pyridin-3-yl)oxy)pyridin-2-yl)morpholine-4-carboxamide] | 10 to 100 nM
11 | < 10 nM | 10 to 100 nM | < 10 nM | < 10 nM | > 1000 nM | CN(C)[C@H]1CCN(C(=O)Nc2cc(Oc3ccc(NC(=O)NC(=O)C(C)(C)C)nc3)ccn2)C1 [Example 47, (S)-3-(dimethylamino)-N-(4-((6-(3-pivaloylureido)pyridin-3-yl)oxy)pyridin-2-yl)pyrrolidine-1-carboxamide] | < 10 nM
12 | < 10 nM | < 10 nM | < 10 nM |  | 100 to 1000 nM | O=C(NC(=O)C1CCOCC1)Nc1ccc(Oc2ccnc(NC(=O)C3CC3)c2)cn1 [Example 35, N-((5-((2-(cyclopropanecarboxamido)pyridin-4-yl)oxy)pyridin-2-yl)carbamoyl)tetrahydro-2H-pyran-4-carboxamide] | < 10 nM
13 | < 10 nM | 100 to 1000 nM | < 10 nM |  | 100 to 1000 nM | CC(=O)Nc1cc(Oc2ccc(NC(=O)NC(=O)C3(C)CCC3)nc2)ccn1 [Example 44, N-((5-((2-acetamidopyridin-4-yl)oxy)pyridin-2-yl)carbamoyl)-1-methylcyclobutanecarboxamide] | < 10 nM
14 | 10 to 100 nM | 100 to 1000 nM | 100 to 1000 nM |  | > 1000 nM | CC(C)(C)C(=O)NC(=O)Nc1ccc(Oc2ccnc(NC(=O)CC#N)c2)cn1 [Example 56, N-((5-((2-(2-cyanoacetamido)pyridin-4-yl)oxy)pyridin-2-yl)carbamoyl)pivalamide] | > 1000 nM
15 | < 10 nM | 100 to 1000 nM | < 10 nM |  | 100 to 1000 nM | CC(=O)Nc1cc(Oc2ccc(NC(=O)NC(=O)C3(C)CCC3)nc2C)ccn1 [Example 43, N-((5-((2-acetamidopyridin-4-yl)oxy)-6-methylpyridin-2-yl)carbamoyl)-1-methylcyclobutanecarboxamide] | < 10 nM
16 | < 10 nM | 100 to 1000 nM | < 10 nM |  | 100 to 1000 nM | Cn1cnc(C(=O)Nc2cc(Oc3ccc(NC(=O)NC(=O)C(C)(C)C)nc3)ccn2)c1 [Example 59, 1-methyl-N-(4-((6-(3-pivaloylureido)pyridin-3-yl)oxy)pyridin-2-yl)-1H-imidazole-4-carboxamide] | < 10 nM
17 | 100 to 1000 nM | > 1000 nM | 100 to 1000 nM |  | > 1000 nM | CC(C)C(=O)NC(=O)Nc1ccc(Oc2ccnc(NC(=O)C3CCN(C)CC3)c2)cn1 [Example 57, N-(4-((6-(3-isobutyrylureido)pyridin-3-yl)oxy)pyridin-2-yl)-1-methylpiperidine-4-carboxamide] | > 1000 nM
18 | < 10 nM | 10 to 100 nM | < 10 nM |  | 10 to 100 nM | CN(C)C(=O)Nc1cc(Oc2ccc(NC(=O)NC(=O)C3(C)CC3)nc2)ccn1 [Example 50, N-((5-((2-(3,3-dimethylureido)pyridin-4-yl)oxy)pyridin-2-yl)carbamoyl)-1-methylcyclopropanecarboxamide] | < 10 nM
19 | 10 to 100 nM | > 1000 nM | 100 to 1000 nM |  | > 1000 nM | CN(C)CC(=O)Nc1cc(Oc2ccc(NC(=O)NC(=O)C(C)(C)C)nc2)ccn1 [Example 54, N-((5-((2-(2-(dimethylamino)acetamido)pyridin-4-yl)oxy)pyridin-2-yl)carbamoyl)pivalamide] | 100 to 1000 nM
20 | 10 to 100 nM | 100 to 1000 nM | 10 to 100 nM |  | > 1000 nM | CC(=O)Nc1cc(Oc2ccc(NC(=O)NC(=O)C(C)C)nc2C)ccn1 [Example 10, N-((5-((2-acetamidopyridin-4-yl)oxy)-6-methylpyridin-2-yl)carbamoyl)isobutyramide] | 10 to 100 nM
21 | 100 to 1000 nM | > 1000 nM | 10 to 100 nM |  | > 1000 nM | CC(C)NC(=O)c1cc(Oc2ccc(NC(=O)NC(=O)C(C)(C)C)nc2)ccn1 [Example 73, N-isopropyl-4-((6-(3-pivaloylureido)pyridin-3-yl)oxy)picolinamide] | > 1000 nM
22 | 10 to 100 nM | > 1000 nM | 10 to 100 nM |  | > 1000 nM | CC(C)(C)C(=O)NC(=O)Nc1ccc(Oc2ccnc(NC(=O)CN3CCCC3)c2)cn1 [Example 53, N-((5-((2-(2-(pyrrolidin-1-yl)acetamido)pyridin-4-yl)oxy)pyridin-2-yl)carbamoyl)pivalamide] | > 1000 nM
